In the NIST ThermoML archive (doi:10.1016/j.fluid.2005.09.006):
± gives the expanded uncertainty stated by the source.

Settings: Liquid

Row | vapor or sublimation pressure (253.15 K) [kPa] | vapor or sublimation pressure (263.15 K) [kPa] | vapor or sublimation pressure (273.15 K) [kPa] | vapor or sublimation pressure (283.15 K) [kPa] | vapor or sublimation pressure (293.15 K) [kPa] | vapor or sublimation pressure (303.15 K) [kPa] | vapor or sublimation pressure (313.15 K) [kPa] | vapor or sublimation pressure (323.15 K) [kPa] | Structure (SMILES)
1 | 1964.8 ± 49 | 2641.8 ± 66 | 3478.5 ± 86 | 4497.8 ± 110 | 5723.7 ± 140 | 7206.2 ± 180 | – | – | O=C=O [carbon dioxide]
2 | 244.2 ± 6.2 | 344.7 ± 8.7 | 473.9 ± 12 | 636.3 ± 16 | 836.3 ± 21 | 1079.6 ± 27 | 1369.8 ± 34 | 1714.5 ± 43 | CCC [propane]
